Measurements as given in patent US6376518B1, “Acyl derivatives of 4-demethylpenclomedine, use thereof and preparation thereof” (Southern Research Institute, priority 1999, dated 2002).
Like-named read-outs stand apart in the source and are kept apart here.

Columns and labels:
human MX-1 mammary tumor [1] = assay: In vivo antitumor activity vs s.c.-implanted human MX-1 mammary tumor xenograft in athymic mice; details: sc MX-1
human MX-1 mammary tumor [2] = assay: In vivo antitumor activity vs i.c.-implanted human MX-1 mammary tumor xenograft in athymic mice; details: ic MX-1, Days 1-5
[3] = tested on: ZR-75-1 human mammary tumor; assay: In vivo antitumor activity vs sc ZR-75-1 xenograft; details: for Tumor-Free-Surv/Total: sc ZR-75-1
MCF7 human mammary tumor = assay: In vivo antitumor activity vs sc MCF7 xenograft
[4] = tested on: UISO-BCA-1 human mammary tumor; assay: In vivo antitumor activity vs sc UISO-BCA-1 xenograft; details: IP 90 mg/kg/dose, Days 16-20
HT29 human colon tumor = assay: In vivo antitumor activity vs sc HT29 xenograft
[5] = tested on: NCI-H82 small cell lung tumor; assay: In vivo antitumor activity vs sc NCI-H82 xenograft; design: species or system human
[6] = tested on: NCI-H460 nonsmall cell lung tumor; assay: In vivo antitumor activity vs sc NCI-H460 xenograft; design: species or system human; details: IP 90 mg/kg/dose, Days 6-10
U251 human CNS tumor = assay: In vivo antitumor activity vs sc U251 xenograft
SF-295 CNS tumor = assay: In vivo antitumor activity vs sc SF-295 xenograft; design: species or system human; details: IP 90 mg/kg/dose, Days 9-13
CAKI-1 human renal tumor = assay: In vivo antitumor activity vs sc CAKI-1 xenograft
OVCAR-5 ovarian tumor = assay: In vivo antitumor activity vs sc OVCAR-5 xenograft; design: species or system human; details: IP 90 mg/kg/dose, Days 12-16
SK-MEL-28 melanoma = assay: In vivo antitumor activity vs sc SK-MEL-28 xenograft; design: species or system human; details: IP 90 mg/kg/dose, Days 8-12
P388/CPA leukemia = assay: Antitumor activity against IP-implanted P388/CPA leukemia in mice; format: in vivo, murine; details: for 50-DAY SURV/TOTAL / % ILS / APPROX. NET LOG10 CHANGE IN TUMOR BURDEN AT END OF Rx / MEDIAN DAY OF DEATH: P388/CPA, Q1D × 5 (1); for MEDIAN DAY OF DEATH: dying mice only
P388/L-PAM leukemia = details: for MEDIAN DAY OF DEATH: dying mice only
P388/BCNU leukemia = assay: Antitumor activity against IP-implanted P388/BCNU leukemia in mice; details: for MEDIAN DAY OF DEATH: dying mice only
[7] = sc MCF7, IP 60 mg/kg/dose, Days 14-18
[8] = sc HT29, IP 90 mg/kg/dose, Days 14-18
[9] = sc NCI-H82, IP 60 mg/kg/dose, Days 13-17
[10] = sc CAKI-1, IP 90 mg/kg/dose, Days 19-23
[11] = highest nontoxic doses evaluated, versus DM-PEN
[12] = highest nontoxic doses evaluated, versus PEN
[13] = P388/0, IP 60.0 mg/kg/dose, Q1D × 5 (1)
[14] = P388/0, IP 90.0 mg/kg/dose, Q1D × 5 (1)
[15] = P388/0, IP 135.0 mg/kg/dose, Q1D × 5 (1)
[16] = P388/L-PAM, IP 60.0 mg/kg/dose, Q1D × 5 (1)
[17] = P388/L-PAM, IP 90.0 mg/kg/dose, Q1D × 5 (1)
[18] = P388/L-PAM, IP 135.0 mg/kg/dose, Q1D × 5 (1)
[19] = P388/BCNU, IP 60.0 mg/kg/dose, Q1D × 5 (1)
[20] = P388/BCNU, IP 90.0 mg/kg/dose, Q1D × 5 (1)
[21] = P388/BCNU, IP 135.0 mg/kg/dose, Q1D × 5 (1)

COc1nc(C(Cl)(Cl)Cl)c(Cl)c(OC(C)=O)c1Cl [DM-A-PEN]
Tumor-Free-Surv/Total (human MX-1 mammary tumor [1]; IP 60 mg/kg/dose (LD20), Days 15-19): 3/5 | Tumor-Free-Surv/Total (human MX-1 mammary tumor [1]; IP 60 mg/kg/dose, Days 14-18): 4/5 | Dose (mg/kg) with observed lethality level (human MX-1 mammary tumor [1]; IP 60 mg/kg/dose, Days 15-19): 60 (LD20) | T-C (human MX-1 mammary tumor [1]; IP 90 mg/kg/dose, Days 12-16): >41.0 days | Tumor-Free-Surv/Total (human MX-1 mammary tumor [1]; IP 90 mg/kg/dose, Days 12-16): 5/5 | Tumor-Free-Surv/Total (human MX-1 mammary tumor [1]; oral (gavage) 135 mg/kg/dose, Days 13-17): 5/5 | Median % ILS (dying mice only) (human MX-1 mammary tumor [2]; IP 60 mg/kg/dose): +60% | Median % ILS (dying mice only) (human MX-1 mammary tumor [2]; oral (gavage) 135 mg/kg/dose): +88% | activity (in words) ([3]; s.c.-implanted ZR-75-1 human mammary tumor): moderate to modest activity | Tumor-Free-Surv/Total ([3]; IP 60 mg/kg/dose, Days 10-14): 0/5 | Tumor-Free-Surv/Total ([3]; IP 90 mg/kg/dose, Days 8-12): 0/5 | activity (in words) (MCF7 human mammary tumor; s.c.-implanted MCF7 human mammary tumor): moderate to modest activity | T-C (MCF7 human mammary tumor; [7]): 7.1 days | Tumor-Free-Surv/Total (MCF7 human mammary tumor; [7]): 0/5 | T-C [4]: -2.4 days | Tumor-Free-Surv/Total [4]: 0/5 | activity (in words) (HT29 human colon tumor; s.c.-implanted HT29 human colon tumor): moderate to modest activity | T-C (HT29 human colon tumor; [8]): 5.8 days | Tumor-Free-Surv/Total (HT29 human colon tumor; [8]): 0/5 | activity (in words) ([5]; s.c.-implanted NCI-H82 small cell lung tumor): moderate to modest activity | T-C [5, 9]: 7.2 days | Tumor-Free-Surv/Total [5, 9]: 0/5 | T-C [6]: -0.6 days | Tumor-Free-Surv/Total [6]: 0/5 | activity (in words) (U251 human CNS tumor; s.c.-implanted U251 human CNS tumor): moderate to modest activity | Tumor-Free-Surv/Total (U251 human CNS tumor; sc U251, IP 90 mg/kg/dose, Days 19-23): 0/5 | T-C (SF-295 CNS tumor): 0.7 days | Tumor-Free-Surv/Total (SF-295 CNS tumor): 0/5 | activity (in words) (CAKI-1 human renal tumor; s.c.-implanted CAKI-1 human renal tumor): moderate to modest activity | T-C (CAKI-1 human renal tumor; [10]): 8.4 days | Tumor-Free-Surv/Total (CAKI-1 human renal tumor; [10]): 0/5 | T-C (OVCAR-5 ovarian tumor): 4.0 days | Tumor-Free-Surv/Total (OVCAR-5 ovarian tumor): 0/5 | T-C (SK-MEL-28 melanoma): 0.7 days | Tumor-Free-Surv/Total (SK-MEL-28 melanoma): 0/5 | 50-DAY SURV/TOTAL (P388/CPA leukemia; IP 60.0 mg/kg/dose): 0/6 | % ILS (P388/CPA leukemia; IP 60.0 mg/kg/dose): +54% | APPROX. NET LOG10 CHANGE IN TUMOR BURDEN AT END OF Rx (P388/CPA leukemia; IP 60.0 mg/kg/dose): −1.1 | MEDIAN DAY OF DEATH (P388/CPA leukemia; IP 60.0 mg/kg/dose): 17.0 | 50-DAY SURV/TOTAL (P388/CPA leukemia; IP 90.0 mg/kg/dose): 0/6 | % ILS (P388/CPA leukemia; IP 90.0 mg/kg/dose): +86% | APPROX. NET LOG10 CHANGE IN TUMOR BURDEN AT END OF Rx (P388/CPA leukemia; IP 90.0 mg/kg/dose): −3.1 | 50-DAY SURV/TOTAL (P388/CPA leukemia; IP 135.0 mg/kg/dose): 0/6 | APPROX. NET LOG10 CHANGE IN TUMOR BURDEN AT END OF Rx (P388/CPA leukemia; IP 135.0 mg/kg/dose): −5.7 | MEDIAN DAY OF DEATH (P388/CPA leukemia; IP 135.0 mg/kg/dose): 25.0 | more active than DM-PEN against P388/CPA (difference in log cell kill) (P388/CPA leukemia; [11]): 4.6 log cell kill | more active than PEN against P388/CPA (difference in log cell kill) (P388/CPA leukemia; [12]): 7.4 log cell kill | 50-DAY SURV/TOTAL (P388/0 leukemia; [13]): 0/6 | % ILS (P388/0 leukemia; [13]): +72% | APPROX. NET LOG10 CHANGE IN TUMOR BURDEN AT END OF Rx (P388/0 leukemia; [13]): −3.1 | MEDIAN DAY OF DEATH (P388/0 leukemia; P388/0, IP 60.0 mg/kg/dose, Q1D × 5 (1), dying mice only): 19.0 | 50-DAY SURV/TOTAL (P388/0 leukemia; [14]): 0/6 | % ILS (P388/0 leukemia; [14]): +95% | APPROX. NET LOG10 CHANGE IN TUMOR BURDEN AT END OF Rx (P388/0 leukemia; [14]): −5.0 | 50-DAY SURV/TOTAL (P388/0 leukemia; [15]): 0/6 | % ILS (P388/0 leukemia; [15]): +159% | APPROX. NET LOG10 CHANGE IN TUMOR BURDEN AT END OF Rx (P388/0 leukemia; [15]): ~−6.8 | Toxicity / lethality level at the dosage (LD) (P388/0 leukemia; [15]): LD33 | more active than DM-PEN against P388/O (difference in log cell kill) (P388/0 leukemia; [11]): 1.9 log cell kill | more active than PEN against P388/0 (difference in log cell kill) (P388/0 leukemia; [12]): 0.4 log cell kill | 50-DAY SURV/TOTAL (P388/L-PAM leukemia; [16]): 0/6 | % ILS (P388/L-PAM leukemia; [16]): +14% | APPROX. NET LOG10 CHANGE IN TUMOR BURDEN AT END OF Rx (P388/L-PAM leukemia; [16]): +1.2 | MEDIAN DAY OF DEATH (P388/L-PAM leukemia; [16]): 18.0 | 50-DAY SURV/TOTAL (P388/L-PAM leukemia; [17]): 0/6 | % ILS (P388/L-PAM leukemia; [17]): +14% | APPROX. NET LOG10 CHANGE IN TUMOR BURDEN AT END OF Rx (P388/L-PAM leukemia; [17]): +1.2 | MEDIAN DAY OF DEATH (P388/L-PAM leukemia; [17]): 18.0 | 50-DAY SURV/TOTAL (P388/L-PAM leukemia; [18]): 0/6 | % ILS (P388/L-PAM leukemia; [18]): +35% | APPROX. NET LOG10 CHANGE IN TUMOR BURDEN AT END OF Rx (P388/L-PAM leukemia; [18]): −0.8 | Toxicity / lethality level at the dosage (LD) (P388/L-PAM leukemia; [18]): LD17 | MEDIAN DAY OF DEATH (P388/L-PAM leukemia; [18]): 19.0 | more active than PEN or DM-PEN against P388/L-PAM (difference in log cell kill) (P388/L-PAM leukemia; highest nontoxic doses evaluated, versus PEN or DM-PEN): 0.2-0.3 log cell kill | activity in the P388/L-PAM tumor model (in words) (P388/L-PAM leukemia; mouse, in vivo): none of the three showed significant activity | 50-DAY SURV/TOTAL (P388/BCNU leukemia; [19]): 1/6 | % ILS (P388/BCNU leukemia; [19]): +44% | APPROX. NET LOG10 CHANGE IN TUMOR BURDEN AT END OF Rx (P388/BCNU leukemia; [19]): 0 | MEDIAN DAY OF DEATH (P388/BCNU leukemia; [19]): 13.0 | 50-DAY SURV/TOTAL (P388/BCNU leukemia; [20]): 0/6 | % ILS (P388/BCNU leukemia; [20]): +77% | APPROX. NET LOG10 CHANGE IN TUMOR BURDEN AT END OF Rx (P388/BCNU leukemia; [20]): −2.3 | MEDIAN DAY OF DEATH (P388/BCNU leukemia; [20]): 16.0 | 50-DAY SURV/TOTAL (P388/BCNU leukemia; [21]): 0/6 | APPROX. NET LOG10 CHANGE IN TUMOR BURDEN AT END OF Rx (P388/BCNU leukemia; [21]): −4.1 | Toxicity / lethality level at the dosage (LD) (P388/BCNU leukemia; [21]): LD17 | MEDIAN DAY OF DEATH (P388/BCNU leukemia; [21]): 21.0 | more active than DM-PEN against P388/BCNU (difference in log cell kill) (P388/BCNU leukemia; [11]): 1.5 log cell kill | more active than PEN against P388/BCNU (difference in log cell kill) (P388/BCNU leukemia; [12]): 3.5 log cell kill
